Results: patent US20240238423A9, “TETRAHYDROISOQUINOLINE HETEROBIFUNCTIONAL BCL-XL DEGRADERS” (Treeline Biosciences, Inc., priority 2022, published 2024)
Read-outs that look alike come from different tables or passages of the source.

Target: T1, Human BCL-XL protein (N-terminal HiBiT tagged BCL-XL in HT1080 cells) (Homo sapiens, UniProt Q07817)
T1 construct: expressed in transfected cells; host or cells: HT-1080 (ATCC CCL-121), stably transduced with lentivirus pLV-UBC-N-HiBiT-BCL-XL-PGK-puro and selected with puromycin
Test: HiBiT based degradation assay
Format: cell-based
Details: HT1080 cells expressing HiBiT-BCL-XL; for Ymin (24 h) / Ymin (6 h): BCL-XL degradation normalized with DMSO control; for DC50: BCL-XL degradation
How it was run: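 HT1080 cells stably transduced by lentivirus with N-terminally HiBiT-tagged human BCL-XL and kept under 1 μg/mL puromycin selection were seeded at three thousand cells per well in 40 μL RPMI 1640 into 384-well plates pre-spotted with compounds across a concentration range. Luminescence was read on a PHERAstar FSX, normalized to DMSO, and fitted with a four-parameter logistic model.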

T1 sequence (Q07817 whole entry): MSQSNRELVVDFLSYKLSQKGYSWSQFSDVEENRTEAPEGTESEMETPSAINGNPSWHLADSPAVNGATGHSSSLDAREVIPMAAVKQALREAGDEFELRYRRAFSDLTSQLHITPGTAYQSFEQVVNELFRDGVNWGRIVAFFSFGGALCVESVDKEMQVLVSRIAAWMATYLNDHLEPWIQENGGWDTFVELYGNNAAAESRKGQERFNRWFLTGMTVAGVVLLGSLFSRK

Ymin (24 h) | DC50 (24 h, read-out: EC50 (24 h)) [nM] | Ymin (6 h) | DC50 (6 h, read-out: EC50 (6 h)) [nM] | SMILES
B (50% ≤ Ymin < 70%) | < 100 | – | – | Cc1c(OCC[C@H]2CCCN(CC(=O)Nc3ccc4c(C5CCC(=O)NC5=O)nn(C)c4c3)C2)cccc1-c1ccc(N2CCc3cccc(C(=O)Nc4nc5ccccc5s4)c3C2)nc1C(=O)O (stereo partly drawn) [Compound 180b, 6-(8-(benzo[d]thiazol-2-ylcarbamoyl)-3,4-dihydroisoquinolin-2(1H)-yl)-3-(3-(2-((3R)-1-(2-((3-(2,6-dioxopiperidin-3-yl)-1-methyl-1H-indazol-6-yl)amino)-2-oxoethyl)piperidin-3-yl)ethoxy)-2-methylphenyl)picolinic acid]
A (Ymin < 50%) | < 100 | – | – | Cc1c(O[C@H]2CC[C@H](CCCCN3CC[C@H](c4ccc5c(C6CCC(=O)NC6=O)nn(C)c5c4)C3)CC2)cccc1-c1ccc(N2CCc3cccc(C(=O)Nc4nc5ccccc5s4)c3C2)nc1C(=O)O (single isomer, unassigned) [Compound 332a]
A (Ymin < 50%) | < 100 | – | – | Cc1c(OCCC2CCN(CC3CCN(c4cccc5c(C6CCC(=O)NC6=O)nn(C)c45)CC3)CC2)cccc1-c1ccc(N2CCc3cccc(C(=O)Nc4nc5ccccc5s4)c3C2)nc1C(=O)O (stereo not drawn) [Compound 261, 6-[8-(1,3-benzothiazol-2-ylcarbamoyl)-3,4-dihydro-1H-isoquinolin-2-yl]-3-[3-[2-[1-[[1-[3-(2,6-dioxo-3-piperidyl)-1-methyl-indazol-7-yl]-4-piperidyl]methyl]-4-piperidyl]ethoxy]-2-methyl-phenyl]pyridine-2-carboxylic acid]
A (Ymin < 50%) | < 100 | – | – | Cc1c(OCC[C@@H]2CC23CCN(CC(=O)Nc2ccc4c(C5CCC(=O)NC5=O)nn(C)c4c2)CC3)cccc1-c1ccc(N2CCc3cccc(C(=O)Nc4nc5ccccc5s4)c3C2)nc1C(=O)O (single isomer, unassigned) [Compound 289a]
A (Ymin < 50%) | < 100 | B (50% ≤ Ymin < 70%) | < 100 | Cc1c(O[C@H]2CC[C@H](CCCN3CCN(c4cccc5c(C6CCC(=O)NC6=O)nn(C)c45)CC3)CC2)cccc1-c1ccc(N2CCc3cccc(C(=O)Nc4nc5ccccc5s4)c3C2)nc1C(=O)O (stereo partly drawn) [Compound 147a, 6-(8-(benzo[d]thiazol-2-ylcarbamoyl)-3,4-dihydroisoquinolin-2(1H)-yl)-3-(3-(((1s,4r)-4-(3-(4-(3-(2,6-dioxopiperidin-3-yl)-1-methyl-1H-indazol-7-yl)piperazin-1-yl)propyl)cyclohexyl)oxy)-2-methylphenyl)picolinic acid]
– | – | A (Ymin < 50%) | < 100 | Cc1c(OCCCCCCCCCN2CCN(c3cccc4c(C5CCC(=O)NC5=O)nn(C)c34)CC2)cccc1-c1ccc(N2CCc3cccc(C(=O)Nc4nc5ccccc5s4)c3C2)nc1C(=O)O (stereo not drawn) [Compound 237, 6-[8-(1,3-benzothiazol-2-ylcarbamoyl)-3,4-dihydro-1H-isoquinolin-2-yl]-3-[3-[9-[4-[3-(2,6-dioxo-3-piperidyl)-1-methyl-indazol-7-yl]piperazin-1-yl]nonoxy]-2-methyl-phenyl]pyridine-2-carboxylic acid]

SMILES | Ymin (24 h) | DC50 (24 h, read-out: EC50 (24 h)) [nM] | Ymin (6 h) | DC50 (6 h, read-out: EC50 (6 h)) [nM]
Cc1c(OCCCCCCCCN2CCN(c3ccc4c(C5CCC(=O)NC5=O)nn(C)c4c3)CC2)cccc1-c1ccc(N2CCc3cccc(C(=O)Nc4nc5ccccc5s4)c3C2)nc1C(=O)O (stereo not drawn) [Compound 205, 6-[8-(1,3-benzothiazol-2-ylcarbamoyl)-3,4-dihydro-1H-isoquinolin-2-yl]-3-[3-[8-[4-[3-(2,6-dioxo-3-piperidyl)-1-methyl-indazol-6-yl]piperazin-1-yl]octoxy]-2-methyl-phenyl]pyridine-2-carboxylic acid] | A (Ymin < 50%) | < 100 | B (50% ≤ Ymin < 70%) | < 100
